The source of these data is US20140357553A1, “NUTRITIONAL COMPOSITION FOR WOUND HEALING” (Nestec S.A., priority 2003, published 2014).

The test system of this assay is Normal human fibroblasts. The procedure:
Normal human fibroblasts were trypsinised and seeded in 12 well plates at a density of […]. When confluent, the cells were transferred to a culture medium with an amino acid distribution and concentrations designed to mimic those in human serum as closely as possible. The cell cultures were divided into two categories, a control culture in which the culture medium contained 0.201 mM proline and an experimental sample in which the culture medium contained 0.592 mM proline. After 24 hours fibroblast-conditioned medium containing 100 microgram/ml beta-aminoproprionitrile to prevent cross-linking of collagen molecules in the cultures was collected. The conditioned medium was dotblotted to a nitrocellulose membrane and probed for collagen type I content with a polyclonal immune-absorbed antibody. The value shown for the proline-supplemented samples is relative to the controls set at 100%.

Consider `O=C(O)[C@@H]1CCCN1` [Proline, proline], for which the “% of control value (collagen type I content)” value (0.502 mM proline in culture medium vs control medium with 0.201 mM proline set at 100%, conditioned medium collected after 24 hours) is listed as 150% ± 21.9%. Moreover, the “increase in collagen synthesis” value (human fibroblasts, proline-supplemented medium vs control) came out at 50%.
